For experiment [1], the target named is CMV-polymerase (Human cytomegalovirus (strain AD169) (HHV-5) (Human herpesvirus 5), UniProt P08546). The experiment is described as follows: biochemical.
Experiment [2] concerns CMV. The experiment is described as follows: microbe, parasite or virus in culture. Format: cell-based. To be noted: Human betaherpesvirus 5, 72 h, read-out: CMV-Luc Cellular EC50, NN-NHDF cells, MOI 1, 72 hrs.
[3] abbreviates: read-out: CMV-polymerase Biochemical IC50.
Setting [4] is: CMV-polymerase Biochemical IC50.

Where two headings read alike, the source gives them in different places. Bounds are passed on as bounds.

Broadly, the IC50 is the midpoint of a concentration-inhibition curve. Usually EC50 stands for the concentration that produces a half-maximal response. For `C[C@@H](NC(=O)c1nn(C)c2c1CCN(CC1(S(=O)(=O)C3CC3)CC1)C2=O)c1ccc(C#N)cc1` [Example 17, (R)-N-(1-(4-Cyanophenyl)ethyl)-6-((1-(cyclopropylsulfonyl)cyclopropyl)methyl)-1-methyl-7-oxo-4,5,6,7-tetrahydro-1H-pyrazolo[3,4-c]pyridine-3-carboxamide], in experiment [1] (setting [3]), the IC50 was 16900 nM. Also, the half-maximal effective concentration (EC50) in experiment [2] is more than 10000 nM.

Regarding `CN(C(CO)CO)S(=O)(=O)C1(CN2CCc3c(C(=O)NCc4ccc(C#N)cc4)nn(C)c3C2=O)CC1` [Example 147, N-(4-Cyanobenzyl)-6-((1-(N-(1,3-dihydroxypropan-2-yl)-N-methylsulfamoyl)cyclopropyl)methyl)-1-methyl-7-oxo-4,5,6,7-tetrahydro-1H-pyrazolo[3,4-c]pyridine-3-carboxamide], the IC50 in experiment [1] (setting [3]) amounted to 30 nM. In addition, the EC50 in experiment [2] amounted to 604 nM.

In the case of `Cn1nc(C(=O)NCc2ccc(C#N)cc2)c2c1C(=O)N(CC1(S(=O)(=O)N3CCC(N)CC3)CC1)CC2` [Example 138, 6-((1-((4-Aminopiperidin-1-yl)sulfonyl)cyclopropyl)methyl)-N-(4-cyanobenzyl)-1-methyl-7-oxo-4,5,6,7-tetrahydro-1H-pyrazolo[3,4-c]pyridine-3-carboxamide], the IC50 in experiment [1] (setting [3]) is 21 nM. Moreover, the EC50 in experiment [2] was determined as 127 nM.

Regarding `Cn1nc(C(=O)NCc2ccc(Cl)cc2)c2c1C(=O)N(CC1(S(=O)(=O)C(C)(C)COCCO)CC1)CC2` [Example 88, N-(4-Chlorobenzyl)-6-((1-((1-(2-hydroxyethoxy)-2-methylpropan-2-yl)sulfonyl)cyclopropyl)methyl)-1-methyl-7-oxo-4,5,6,7-tetrahydro-1H-pyrazolo[3,4-c]pyridine-3-carboxamide], the half-inhibitory concentration (IC50) in experiment [1] (setting [4]) was 2 nM. Besides, the EC50 in experiment [2] is 36 nM.

For `COC(=O)NCC(C)(C)S(=O)(=O)C1(CN2CCc3c(C(=O)NCc4ccc(C#N)cc4)nn(C)c3C2=O)CC1` [Example 73, Methyl (2-((1-((3-((4-cyanobenzyl)carbamoyl)-1-methyl-7-oxo-1,4,5,7-tetrahydro-6H-pyrazolo[3,4-c]pyridin-6-yl)methyl)cyclopropyl)sulfonyl)-2-methylpropyl)carbamate], the IC50 in experiment [1] (setting [3]) amounted to 2 nM. Besides, the EC50 in experiment [2] is 53 nM.

In experiment [1] (setting [4]), `Cn1nc(C(=O)NCc2ccc(C#N)cc2)c2c1C(=O)N(CC1(S(=O)(=O)C(C)(C)COC3CNC3)CC1)CC2` [Example 102, 6-((1-((1-(Azetidin-3-yloxy)-2-methylpropan-2-yl)sulfonyl)cyclopropyl)methyl)-N-(4-cyanobenzyl)-1-methyl-7-oxo-4,5,6,7-tetrahydro-1H-pyrazolo[3,4-c]pyridine-3-carboxamide] came in with an IC50 of 5 nM. The EC50 in experiment [2] was determined as 26 nM.

For the compound `Cn1nc(C(=O)NCc2ccc(C#N)cc2)c2c1C(=O)N(CC1(S(=O)(=O)C(C)(C)[C@H](N)CO)CC1)CC2` [Example 213, (R)-6-((1-((3-Amino-4-hydroxy-2-methylbutan-2-yl)sulfonyl)cyclopropyl)methyl)-N-(4-cyanobenzyl)-1-methyl-7-oxo-4,5,6,7-tetrahydro-1H-pyrazolo[3,4-c]pyridine-3-carboxamide], the IC50 in experiment [1] (setting [4]) was 2 nM. The EC50 in experiment [2] worked out at 81 nM.

`Cn1nc(C(=O)NCc2ccc(C#N)c(F)c2)c2c1C(=O)N(CC1(S(=O)(=O)C3CC3)CC1)CC2` [Example 9, N-(4-Cyano-3-fluorobenzyl)-6-((1-(cyclopropylsulfonyl)cyclopropyl)methyl)-1-methyl-7-oxo-4,5,6,7-tetrahydro-1H-pyrazolo[3,4-c]pyridine-3-carboxamide]: the IC50 in experiment [1] (setting [3]) came to 1 nM. The EC50 in experiment [2] is 31 nM.

On to `Cn1nc(-c2nnnn2Cc2ccc(C#N)cc2)c2c1C(=O)N(CC1(S(=O)(=O)C3CC3)CC1)CC2` [Example 30, 4-((5-(6-((1-(cyclopropylsulfonyl)cyclopropyl)methyl)-1-methyl-7-oxo-4,5,6,7-tetrahydro-1H-pyrazolo[3,4-c]pyridin-3-yl)-1H-tetrazol-1-yl)methyl)benzonitrile], for which, in experiment [1] (setting [3]), the IC50 was found to be 940 nM. Besides, in experiment [2], the EC50 was more than 10000 nM.

Consider `CNCCOCC(C)(C)S(=O)(=O)C1(CN2CCc3c(C(=O)NCc4ccc(C#N)cc4)nn(C)c3C2=O)CC1` [Example 101, N-(4-Cyanobenzyl)-1-methyl-6-((1-((2-methyl-1-(2-(methylamino)ethoxy)propan-2-yl)sulfonyl)cyclopropyl)methyl)-7-oxo-4,5,6,7-tetrahydro-1H-pyrazolo[3,4-c]pyridine-3-carboxamide], for which 1 nM corresponded to half-maximal inhibition in experiment [1] (setting [4]) (IC50). Moreover, in experiment [2], the EC50 was found to be 9 nM.

For the compound `CN(Cc1ccc(C#N)cc1)C(=O)c1nn(C)c2c1CCN(CC1(S(=O)(=O)C3CC3)CC1)C2=O` [Example 6, N-(4-Cyanobenzyl)-6-((1-(cyclopropylsulfonyl)cyclopropyl)methyl)-N,1-dimethyl-7-oxo-4,5,6,7-tetrahydro-1H-pyrazolo[3,4-c]pyridine-3-carboxamide], the IC50 in experiment [1] (setting [3]) amounted to 30 nM. In addition, the EC50 in experiment [2] was 770 nM.

As for `CC(C)(O)Cn1nc(C(=O)NCc2ccc(Cl)cc2)c2c1C(=O)N(CC1(S(=O)(=O)C3CC3)CC1)CC2` [Example 229, N-(4-Chlorobenzyl)-6-((1-(cyclopropylsulfonyl)cyclopropyl)methyl)-1-(2-hydroxy-2-methylpropyl)-7-oxo-4,5,6,7-tetrahydro-1H-pyrazolo[3,4-c]pyridine-3-carboxamide], inhibition in experiment [1] (setting [4]) was half-maximal at 1 nM (IC50). In experiment [2], the EC50 was 20 nM.

In turn, `O=C(NCc1ccc(Cl)cc1)c1n[nH]c2c1CCN(CC1(S(=O)(=O)C3CC3)CC1)C2=O` [Example 44, N-(4-Chlorobenzyl)-6-((1-(cyclopropylsulfonyl)cyclopropyl)methyl)-7-oxo-4,5,6,7-tetrahydro-1H-pyrazolo[3,4-c]pyridine-3-carboxamide] registered an IC50 in experiment [1] (setting [4]) of 4 nM. Besides, the EC50 in experiment [2] is 76 nM.

With `Cn1nc(C(=O)NCc2ccc(C#N)cc2)c2c1C(=O)N(CC1(S(=O)(=O)C(C)(C)CO)CC1)CC2` [Example 52, N-(4-Cyanobenzyl)-6-((1-((1-hydroxy-2-methylpropan-2-yl)sulfonyl)cyclopropyl)methyl)-1-methyl-7-oxo-4,5,6,7-tetrahydro-1H-pyrazolo[3,4-c]pyridine-3-carboxamide], the IC50 in experiment [1] (setting [3]) was found to be 1 nM. Besides, the EC50 in experiment [2] worked out at 19 nM.

On to `COc1cc(CNC(=O)c2nn(C)c3c2CCN(CC2(S(=O)(=O)C4CC4)CC2)C3=O)ccc1C#N` [Example 15, N-(4-Cyano-3-methoxybenzyl)-6-((1-(cyclopropylsulfonyl)cyclopropyl)methyl)-1-methyl-7-oxo-4,5,6,7-tetrahydro-1H-pyrazolo[3,4-c]pyridine-3-carboxamide], for which, in experiment [1] (setting [3]), the IC50 stood at 11 nM. The EC50 in experiment [2] is 162 nM.

`CC1(C)CNCCOCCn2nc(C(=O)NCc3ccc(C#N)cc3)c3c2C(=O)N(CC3)CC2(CC2)S1(=O)=O` [Example 242, amine macrocycle N-(4-cyanobenzyl)carboxamide]: the IC50 in experiment [1] (setting [4]) was found to be 6 nM. The EC50 in experiment [2] was determined as 101 nM.

`Cn1nc(C(=O)NCc2ccc(C#N)cc2)c2c1C(=O)N(CC1(S(=O)(=O)C3(CCO)CC3)CC1)CC2` [Example 117, N-(4-Cyanobenzyl)-6-((1-((1-(2-hydroxyethyl)cyclopropyl)sulfonyl)cyclopropyl)methyl)-1-methyl-7-oxo-4,5,6,7-tetrahydro-1H-pyrazolo[3,4-c]pyridine-3-carboxamide]: in experiment [1] (setting [3]), the IC50 stood at 4 nM. Further, the EC50 in experiment [2] worked out at 35 nM.

Regarding `Cc1cc(CNC(=O)c2nn(C)c3c2CCN(CC2(S(=O)(=O)C4CC4)CC2)C3=O)ccc1C#N` [Example 11, N-(4-Cyano-3-methylbenzyl)-6-((1-(cyclopropylsulfonyl)cyclopropyl)methyl)-1-methyl-7-oxo-4,5,6,7-tetrahydro-1H-pyrazolo[3,4-c]pyridine-3-carboxamide], in experiment [1] (setting [3]), the IC50 was 17 nM. Besides, in experiment [2], the EC50 turned out to be 214 nM.

In experiment [1] (setting [4]), `Cn1nc(-c2cn(Cc3ccc(C#N)cc3)nn2)c2c1C(=O)N(CC1(S(=O)(=O)C3CC3)CC1)CC2` [Example 35, 4-((4-(6-((1-(Cyclopropylsulfonyl)cyclopropyl)methyl)-1-methyl-7-oxo-4,5,6,7-tetrahydro-1H-pyrazolo[3,4-c]pyridin-3-yl)-1H-1,2,3-triazol-1-yl)methyl)benzonitrile] came in with an IC50 of 3 nM. For the same compound, the EC50 in experiment [2] turned out to be 38 nM.

For `Cn1nc(C(=O)NCc2ccc(Cl)cc2)c2c1C(=O)N(CC1(S(=O)(=O)C(C)(C)[C@@H](O)CO)CC1)CC2` [Example 190, (S)—N-(4-Chlorobenzyl)-6-((1-((3,4-dihydroxy-2-methylbutan-2-yl)sulfonyl)cyclopropyl)methyl)-1-methyl-7-oxo-4,5,6,7-tetrahydro-1H-pyrazolo[3,4-c]pyridine-3-carboxamide], the IC50 in experiment [1] (setting [3]) was 1 nM. Besides, the EC50 in experiment [2] turned out to be 19 nM.

`Cn1nc(C(=O)NCc2ccc(C#N)cc2)c2c1C(=O)N(CC1(S(=O)(=O)C(C)(C)CN)CC1)CC2` [Example 70, 6-((1-((1-Amino-2-methylpropan-2-yl)sulfonyl)cyclopropyl)methyl)-N-(4-cyanobenzyl)-1-methyl-7-oxo-4,5,6,7-tetrahydro-1H-pyrazolo[3,4-c]pyridine-3-carboxamide] returned an IC50 in experiment [1] (setting [4]) of 3 nM. Further, in experiment [2], the EC50 was determined as 61 nM.

In experiment [1] (setting [4]), `Cn1nc(C(=O)NCc2ccc(C#N)cc2)c2c1C(=O)N(CC1(S(=O)(=O)C(C)(C)COC(F)(F)CN)CC1)CC2` [Example 85, 6-((1-((1-(2-Amino-1,1-difluoroethoxy)-2-methylpropan-2-yl)sulfonyl)cyclopropyl)methyl)-N-(4-cyanobenzyl)-1-methyl-7-oxo-4,5,6,7-tetrahydro-1H-pyrazolo[3,4-c]pyridine-3-carboxamide] returned an IC50 of 3 nM. For the same compound, the EC50 in experiment [2] was determined as 50 nM.

As for `Cn1nc(C(=O)NCc2ccc(C#N)cc2)c2c1C(=O)N(CC1(S(=O)(=O)NC(C)(C)CO)CC1)CC2` [Example 149, N-(4-Cyanobenzyl)-6-((1-(N-(1-hydroxy-2-methylpropan-2-yl)sulfamoyl)cyclopropyl)methyl)-1-methyl-7-oxo-4,5,6,7-tetrahydro-1H-pyrazolo[3,4-c]pyridine-3-carboxamide], the IC50 in experiment [1] (setting [3]) is 12 nM. Also, the EC50 in experiment [2] is 166 nM.

These data come from patent US12338220B2, “Antiviral pyrazolopiridinone compounds” (Novartis AG, priority 2019, dated 2025).
